Experimental data reported in US20230122776A1, “ANTIVIRAL AGENT” (priority 2020, published 2023).
“And” between values parts separate entries of the source, which are not always exact repeats. Equal values may be shown once. Read-outs that look alike come from different tables or passages of the source.

Legend:
SARS-CoV-2 [1] = assay type: in vivo
[2] = target: blood coagulation factor X (Homo sapiens, UniProt P00742); conditions: from Reinmüller, Zentralblatt Chirurgie 124 (1999); cited from earlier work
blood coagulation factor X, sequence (P00742 41-488): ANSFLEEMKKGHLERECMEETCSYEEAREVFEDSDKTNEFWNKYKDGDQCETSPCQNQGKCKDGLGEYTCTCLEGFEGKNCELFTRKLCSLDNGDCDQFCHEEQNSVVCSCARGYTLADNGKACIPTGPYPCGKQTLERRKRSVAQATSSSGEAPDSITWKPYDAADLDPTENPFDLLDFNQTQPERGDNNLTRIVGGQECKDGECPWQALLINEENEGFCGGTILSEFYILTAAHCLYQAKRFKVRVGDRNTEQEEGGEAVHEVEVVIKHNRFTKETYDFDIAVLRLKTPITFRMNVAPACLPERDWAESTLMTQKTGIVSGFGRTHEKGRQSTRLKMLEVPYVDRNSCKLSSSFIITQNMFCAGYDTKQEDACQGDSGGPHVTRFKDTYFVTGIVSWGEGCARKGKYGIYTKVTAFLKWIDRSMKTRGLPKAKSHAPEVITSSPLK

SARS-CoV-2 [3] = assay type: in vivo; conditions: 4 close contacts; inhaled taurolidine 0.5% 3 times or twice a day for 7 days

O=S1(=O)CCN(CN2CCS(=O)(=O)NC2)CN1 [taurolidine]
time interval from the start of treatment to the easing of the symptoms (SARS-CoV-2 [1]; SARS-CoV-2 positive (POCT) participant, inhaled taurolidine 0.5% three times a day): ≤ 48 h
time interval from the start of treatment to the easing of the symptoms (SARS-CoV-2 [1]; in vivo): 96 h and 72 h
activity of the blood coagulation factor X [2]: inhibits the activity
POCT for SARS-CoV-2 under prophylaxis (SARS-CoV-2 [3]): remained negative
disease symptoms under prophylaxis (SARS-CoV-2 [3]): remained symptom-free
